Test systems include UACC-62; MOLT-4; SR; UO-31; OVCAR-4; EKVX; NCI-H226; NCI-H460; HL-60; CAKI-1; COLO 205; SK-MEL-2; ACHN; OVCAR-3; NCI-H522; K562; A549; HCC 2998; CCRF-CEM; HOP-62.
Common to all, as to assay: NCI-60 cell line screen, 48 h

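All cell lines were grown in 96-well plates and treated with compound for 48 hours. The concentration for 50% growth inhibition is given as GI50.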 Calls of active or inactive are those of the source. Cut-off read from the data, not from the text of the source: active = GI50 up to about 1.1 µM and inactive = higher.

Turning to `CCC1CN2CCc3c([nH]c4ccccc34)[C@@](C(=O)OC)(c3cc4c(cc3OC)N(C)C3C(O)(C(=O)OC)C(C(=O)OC)C5(CC)C=CCN6CCC43C65)C[C@@H](C2)[C@@H]1C(C)(C)C` (stereo not given in full), the GI50 is 0.494 µM (active) with UACC-62; 0.479 µM (active) with MOLT-4; 0.473 µM (active) in the assay with SR; 1.47 µM (inactive) in the assay on UO-31; 3.15 µM (inactive) in the assay with OVCAR-4; 1.98 µM (inactive) with EKVX. Moreover, the GI50 is 0.267 µM (active) in the assay on NCI-H226; 0.393 µM (active) with NCI-H460; 0.305 µM (active) in the assay on HL-60; 4.27 µM (inactive) with CAKI-1; 0.372 µM (active) in the assay on COLO 205; 0.41 µM (active) with SK-MEL-2. In addition, the GI50 with ACHN was 0.6 µM (active); in the assay with OVCAR-3 it was 0.316 µM (active); with NCI-H522, 0.292 µM (active); with K562, 0.334 µM (active); in the assay on A549 it was 0.649 µM (active); with HCC 2998, 0.373 µM (active). Also, the values for the GI50 in the assay on CCRF-CEM and with HOP-62 were 0.348 µM (active) and 0.257 µM (active), respectively.

`COc1ccc(-c2c(C3=NCCCN3)nnn2-c2ccc([N+](=O)[O-])cc2)cc1`: the GI50 with UACC-62, in the assay on MOLT-4, in the assay with SR, in the assay with UO-31, with OVCAR-4 and with EKVX was > 100 µM (inactive) each time. The GI50 in the assay with NCI-H226, with NCI-H460, in the assay on HL-60, in the assay on CAKI-1, in the assay with COLO 205 and in the assay on SK-MEL-2 was > 100 µM (inactive) each time. In addition, the GI50 in the assay with ACHN, with OVCAR-3, in the assay with NCI-H522, in the assay with K562, in the assay on A549 and in the assay on HCC 2998 was > 100 µM (inactive) throughout. In addition, the GI50 in the assay with CCRF-CEM and in the assay with HOP-62 was > 100 µM (inactive) throughout.

As for `COC1(OC)C2(Cl)C3=CCCC=C3C1(Cl)C(Cl)=C2Cl`, the GI50 in the assay on UACC-62 was 25.5 µM (inactive); in the assay on MOLT-4, 18.4 µM (inactive); in the assay with SR, 18.1 µM (inactive); with UO-31, 21.7 µM (inactive); with OVCAR-4, 18.2 µM (inactive); with EKVX, 16.1 µM (inactive). Besides, the GI50 is 45.7 µM (inactive) with NCI-H226; 26.5 µM (inactive) in the assay with NCI-H460; 13.9 µM (inactive) in the assay with HL-60; 18.9 µM (inactive) in the assay with CAKI-1; 18.6 µM (inactive) with COLO 205; 16.9 µM (inactive) in the assay on SK-MEL-2. The GI50 with ACHN was 28 µM (inactive); in the assay on OVCAR-3 it was 17.4 µM (inactive); in the assay on NCI-H522, 12.9 µM (inactive); in the assay on K562, > 10 µM (inactive); in the assay with A549 it was 27.2 µM (inactive); with HCC 2998, 29.2 µM (inactive). Besides, the GI50 was 19.8 µM (inactive) with CCRF-CEM and 26.3 µM (inactive) in the assay on HOP-62.

`O=C(c1ccccc1)c1nnn(Cc2ccccc2Cn2nnc(C(=O)c3ccccc3)c2C(=O)c2ccccc2)c1C(=O)c1ccccc1`: the GI50 in the assay on UACC-62 is > 100 µM (inactive); in the assay with MOLT-4 it was > 100 µM (inactive); with SR it was > 100 µM (inactive); in the assay with UO-31 it was > 100 µM (inactive); in the assay on OVCAR-4, > 100 µM (inactive); in the assay on EKVX it was 47.6 µM (inactive). Also, the GI50 is 47.4 µM (inactive) in the assay with NCI-H226; > 100 µM (inactive) with NCI-H460; > 100 µM (inactive) in the assay with HL-60; > 100 µM (inactive) in the assay on CAKI-1; 50.5 µM (inactive) in the assay with COLO 205; > 100 µM (inactive) with SK-MEL-2. For the same compound, the GI50 with ACHN was > 100 µM (inactive); with OVCAR-3 it was > 100 µM (inactive); in the assay on NCI-H522 it was > 100 µM (inactive); in the assay on K562, > 100 µM (inactive); in the assay with A549, 48.2 µM (inactive); in the assay with HCC 2998, > 100 µM (inactive). The GI50 with CCRF-CEM and with HOP-62 was > 100 µM (inactive) each time.

Source of the values: ChEMBL document CHEMBL1201862, “PubChem BioAssay data set” (2004).
